Test results as given in patent US5770688A, “Method and composition for the treatment of mammalian HIV infection” (GSF-Forschungszentrum fur Umwelt und Gesundheit GmbH, priority 1989, dated 1998).
Entries after “also recorded” stand apart in the source; their conditions may differ.

How the values were obtained:
[1] = tolerability and clinical investigation of FIV infected cats; type: in vivo
Text: In the following series of experiments, two naturally FIV infected cats (M and G) were used. These particular cats were kept for more than one year under constant observation in the Clinic for Internal Medicine at the Veterinary School in Munich, Germany before the onset of melittin (Seq. ID NO:1) treatment. In each cat, FIV infection had been confirmed by detecting an antibody ELISA. In this regard, a test marketed under the tradename PetChek® and which is available from the same company in Portland, Maine was employed. As best seen in FIG. 53. The antibody titer against FIV in both cats was approximately 1:50. As a general matter, the overall physical condition of both cats was good during the observation period. […]
During the experiment it was determined that detectable blood serum levels of melittin (Seq. ID NO:1) of about 5 ng/ml could be detected following an injection of melittin equal to […] a few minutes after injection. […] In vitro data has shown that melittin, after this time interval, is found within the cells where it can be detected in tact for more than 48 hours. […] The quantitative effect of melittin on FIV replication was determined quantitatively by utilizing FIV-PCR employing nested primers from the gag region. Quantification was based upon the determination of amplified product in identical samples which have been amplified after different cycle times. […]

[2] = system: KE37-1/111β (HIV-infected T-lymphoma cells); assay: MTT test, growth of HIV infected T-lymphoma cells; type: cell-based
Method: The KE37-1 (uninfected) and KE37-1/111β (infected) cell lines discussed below are commercially available from the Dr. Robert Gallows Laboratory of the NIH in the United States of America and grown in a medium of RPMI 1640 (GIBCO) and further supplemented with 10% fetal calf serum which contained approximately 100 units of penicillin, 100 μg streptomycin, and approximately 0.25 μg fungizone (Amphotericin B) per milliliter. The human mesenchymal cell lines LC5 and LC5-HIV, discussed below, are deposited with the Collection De L'Institut Pasteur of Paris, France on Mar. 9, 1989 and given the accession numbers I-842 and I-843, respectively. The LC5 and LC5-HIV cell lines were grown in a medium of RPMI 1640 and supplemented with 10% fetal calf serum.
Referring more particularly to FIGS. 1-4, melittin (Seq. ID NO:1) and its specified analogues were tested for their effect on HIV-infected T-lymphoma cells. In this regard the following cell lines were employed in the testing: KE37-1 (uninfected) and KE37-1/111S (infected with HTLV-111β). These infected cells were incubated for a period of seven days under test conditions at a temperature of 37° C. and in the presence of 5% CO2. A culture medium of RPMI 1640 (GIBCO) was employed and was further supplemented with 10% fetal calf serum which contained approximately 100 units of penicillin, 100μ of streptomycin, and approximately 0.25μ fungizone (Amphotericin B) per milliliter. This equals 1 milliliter of antibiotic-antimycotic solution (GIBCO Catalogue No. 043-05240 per 100 ml. of medium.) After a one week incubation period in the presence of various concentrations of the above-identified substances, which were added fresh daily to the medium, the following tests were carried out with the cultures. A first test was conducted for purposes of determining the relative cell concentration as a function of the number of HIV infected cells present by employing an MTT test. […] The optical density (OD) of the solution was determined at=600 nm. […]

Substance: Gly-Ile-Gly-Ala-Val-Leu-Lys-Val-Leu-Thr-Thr-Gly-Leu-Pro-Ala-Leu-Ile-Ser-Trp-Ile-Lys-Arg-Lys-Arg-Gln-Gln-Amide [melittin]
- tolerability / adverse reactions ([1]; 50 to 500 mg/kg s.c. twice weekly, eight weeks): appeared to tolerate the numerous injections without any clinically noticeable negative reactions; also recorded: no adverse reaction or clinical abnormalities could be observed in either animal
- pneumonitis ([1]; cat M): improved during the melittin treatment
- level of growth of the cells ([2]; 2.5 μg per ml): appears not yet influenced
- selective toxicity/growth inhibition of HIV infected cells, in words ([2]; FIGS. 1-4): appears to inhibit the growth of HIV infected cells selectively
- concentration toxic to HIV infected cells ([2]; KE37-1/111β, seven days incubation, 10080 min): above 5 μg per ml
